Experiments:
Format in all cases: in vivo
[1] = test system: barnyardgrass (Echinochloa crus-galli); experiment: Test G Post-Emergence Protocol; conditions: Echinochloa crus-galli, post-emergence, 312 h; for pest or weed control at 15.625 g/ha: 15.625 g ai/ha, evaluated after 13 days (100=total damage to plant; 0=no damage to plant), read-out: Barnyardgrass damage rating; for pest or weed control at 62.5 g/ha: 62.5 g ai/ha, read-out: Barnyardgrass damage rating (100=total damage to plant; 0=no damage to plant); for pest or weed control at 62.5 g/ha / pest or weed control at 250 g/ha: evaluated after 13 days; for pest or weed control at 250 g/ha: 250 g ai/ha, read-out: damage to plant, Barnyardgrass (100=total damage to plant; 0=no damage to plant)
In short: (§1)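 Scores run 0 (no damage) to 100 (total damage) and were taken 13 days after spraying. Plants had been raised in pots for 8 days under glasshouse control (24/16 °C, 14 h photoperiod, 65% humidity) and then treated at 15.625, 62.5 or 250 g/ha.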

[2] = test system: redroot pigweed (Amaranthus retroflexus); experiment: Test G Post-Emergence Protocol; conditions: Amaranthus retroflexus, post-emergence, 312 h; for pest or weed control at 15.625 g/ha: 15.625 g ai/ha, evaluated after 13 days (100=total damage to plant; 0=no damage to plant), read-out: Pigweed, Redroot damage rating; for pest or weed control at 62.5 g/ha: 62.5 g ai/ha, read-out: Pigweed, Redroot damage rating (100=total damage to plant; 0=no damage to plant); for pest or weed control at 62.5 g/ha / pest or weed control at 250 g/ha: evaluated after 13 days; for pest or weed control at 250 g/ha: 250 g ai/ha, read-out: damage to plant, Pigweed, Redroot (100=total damage to plant; 0=no damage to plant)
In short: as §1

corn (Zea mays) [3] = experiment: Test G Post-Emergence Protocol; conditions: Zea mays, post-emergence, 312 h; for plant injury at 15.625 g/ha: 15.625 g ai/ha, evaluated after 13 days (100=total damage to plant; 0=no damage to plant), read-out: Corn damage rating; for plant injury at 62.5 g/ha: 62.5 g ai/ha, read-out: Corn damage rating (100=total damage to plant; 0=no damage to plant); for plant injury at 62.5 g/ha / plant injury at 250 g/ha: evaluated after 13 days; for plant injury at 250 g/ha: 250 g ai/ha, read-out: damage to plant, Corn (100=total damage to plant; 0=no damage to plant)
In short: as §1

[4] = test system: velvetleaf (Abutilon theophrasti); experiment: Test G Post-Emergence Protocol; conditions: Abutilon theophrasti, post-emergence, 312 h; for pest or weed control at 15.625 g/ha: 15.625 g ai/ha, evaluated after 13 days (100=total damage to plant; 0=no damage to plant), read-out: Velvetleaf damage rating; for pest or weed control at 62.5 g/ha: 62.5 g ai/ha, read-out: Velvetleaf damage rating (100=total damage to plant; 0=no damage to plant); for pest or weed control at 62.5 g/ha / pest or weed control at 250 g/ha: evaluated after 13 days; for pest or weed control at 250 g/ha: 250 g ai/ha, read-out: damage to plant, Velvetleaf (100=total damage to plant; 0=no damage to plant)
In short: as §1

[5] = test system: ivy-leaved morning glory (Ipomoea hederacea); experiment: Test G Post-Emergence Protocol; conditions: Ipomoea, post-emergence, 312 h; for pest or weed control at 15.625 g/ha: 15.625 g ai/ha, evaluated after 13 days (100=total damage to plant; 0=no damage to plant), read-out: Morningglory, Ivy-leaved damage rating; for pest or weed control at 62.5 g/ha: 62.5 g ai/ha, read-out: Morningglory, Ivy-leaved damage rating (100=total damage to plant; 0=no damage to plant); for pest or weed control at 62.5 g/ha / pest or weed control at 250 g/ha: evaluated after 13 days; for pest or weed control at 250 g/ha: 250 g ai/ha, read-out: damage to plant, Morningglory, Ivy-leaved (100=total damage to plant; 0=no damage to plant)
In short: as §1

[6] = test system: giant foxtail (Setaria faberi); experiment: Test G Post-Emergence Protocol; conditions: Setaria faberi, post-emergence, 312 h; for pest or weed control at 15.625 g/ha: 15.625 g ai/ha, evaluated after 13 days (100=total damage to plant; 0=no damage to plant), read-out: Foxtail, Giant damage rating; for pest or weed control at 62.5 g/ha: 62.5 g ai/ha, read-out: Foxtail, Giant damage rating (100=total damage to plant; 0=no damage to plant); for pest or weed control at 62.5 g/ha / pest or weed control at 250 g/ha: evaluated after 13 days; for pest or weed control at 250 g/ha: 250 g ai/ha, read-out: damage to plant, Foxtail, Giant (100=total damage to plant; 0=no damage to plant)
In short: as §1

[7] = test system: barnyardgrass (Echinochloa crus-galli); experiment: Test G Pre-Emergence Protocol; conditions: Echinochloa crus-galli, pre-emergence, 312 h, evaluated after 13 days; for pest or weed control at 15.625 g/ha: 15.625 g ai/ha, read-out: Barnyard grass damage rating (100=total damage to plant; 0=no damage to plant); for pest or weed control at 62.5 g/ha: 62.5 g ai/ha, 100=total damage to plant, 0=no damage to plant, read-out: plant damage rating, Barnyardgrass; for pest or weed control at 250 g/ha: 250 g ai/ha, read-out: Barnyardgrass damage rating (100=total damage to plant; 0=no damage to plant)
In short: (§2)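 Scores are visual damage ratings from 0 (no damage) to 100 (total plant kill), taken 13 days after treatment. Compound was sprayed one day post-sowing at 15.625, 62.5 or 250 g/ha in 50:50 acetone/water with 0.5% Tween 20.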

[8] = test system: redroot pigweed (Amaranthus retroflexus); experiment: Test G Pre-Emergence Protocol; conditions: Amaranthus retroflexus, pre-emergence, 312 h, evaluated after 13 days; for pest or weed control at 15.625 g/ha: 15.625 g ai/ha; for pest or weed control at 15.625 g/ha / pest or weed control at 250 g/ha: read-out: Pigweed, Redroot damage rating (100=total damage to plant; 0=no damage to plant); for pest or weed control at 62.5 g/ha: 62.5 g ai/ha, 100=total damage to plant, 0=no damage to plant, read-out: plant damage rating, Pigweed, Redroot; for pest or weed control at 250 g/ha: 250 g ai/ha
In short: as §2

corn (Zea mays) [9] = experiment: Test G Pre-Emergence Protocol; conditions: Zea mays, pre-emergence, 312 h, evaluated after 13 days; for plant injury at 15.625 g/ha: 15.625 g ai/ha; for plant injury at 15.625 g/ha / plant injury at 250 g/ha: read-out: Corn damage rating (100=total damage to plant; 0=no damage to plant); for plant injury at 62.5 g/ha: 62.5 g ai/ha, 100=total damage to plant, 0=no damage to plant, read-out: plant damage rating, Corn; for plant injury at 250 g/ha: 250 g ai/ha
In short: as §2

[10] = test system: velvetleaf (Abutilon theophrasti); experiment: Test G Pre-Emergence Protocol; conditions: Abutilon theophrasti, pre-emergence, 312 h, evaluated after 13 days; for pest or weed control at 15.625 g/ha: 15.625 g ai/ha; for pest or weed control at 15.625 g/ha / pest or weed control at 250 g/ha: read-out: Velvetleaf damage rating (100=total damage to plant; 0=no damage to plant); for pest or weed control at 62.5 g/ha: 62.5 g ai/ha, 100=total damage to plant, 0=no damage to plant, read-out: plant damage rating, Velvetleaf; for pest or weed control at 250 g/ha: 250 g ai/ha
In short: as §2

[11] = test system: ivy-leaved morning glory (Ipomoea hederacea); experiment: Test G Pre-Emergence Protocol; conditions: Ipomoea, pre-emergence, 312 h, evaluated after 13 days; for pest or weed control at 15.625 g/ha: 15.625 g ai/ha, read-out: Morning-glory, Ivy-leaved damage rating (100=total damage to plant; 0=no damage to plant); for pest or weed control at 62.5 g/ha: 62.5 g ai/ha, 100=total damage to plant, 0=no damage to plant, read-out: plant damage rating, Morningglory, Ivy-leaved; for pest or weed control at 250 g/ha: 250 g ai/ha, read-out: Morningglory, Ivy-leaved damage rating (100=total damage to plant; 0=no damage to plant)
In short: as §2

[12] = test system: giant foxtail (Setaria faberi); experiment: Test G Pre-Emergence Protocol; conditions: Setaria faberi, pre-emergence, 312 h, evaluated after 13 days; for pest or weed control at 15.625 g/ha: 15.625 g ai/ha; for pest or weed control at 15.625 g/ha / pest or weed control at 250 g/ha: read-out: Foxtail, Giant damage rating (100=total damage to plant; 0=no damage to plant); for pest or weed control at 62.5 g/ha: 62.5 g ai/ha, 100=total damage to plant, 0=no damage to plant, read-out: plant damage rating, Foxtail, Giant; for pest or weed control at 250 g/ha: 250 g ai/ha
In short: as §2

Row | SMILES | pest or weed control at 15.625 g/ha [1] | pest or weed control at 62.5 g/ha [1] | pest or weed control at 250 g/ha [1] | pest or weed control at 15.625 g/ha [2] | pest or weed control at 62.5 g/ha [2] | pest or weed control at 250 g/ha [2] | plant injury at 15.625 g/ha (corn (Zea mays) [3]) | plant injury at 62.5 g/ha (corn (Zea mays) [3]) | plant injury at 250 g/ha (corn (Zea mays) [3]) | pest or weed control at 15.625 g/ha [4] | pest or weed control at 62.5 g/ha [4] | pest or weed control at 250 g/ha [4] | pest or weed control at 15.625 g/ha [5] | pest or weed control at 62.5 g/ha [5] | pest or weed control at 250 g/ha [5] | pest or weed control at 15.625 g/ha [6] | pest or weed control at 62.5 g/ha [6] | pest or weed control at 250 g/ha [6] | pest or weed control at 15.625 g/ha [7] | pest or weed control at 62.5 g/ha [7] | other results
1 | Cc1nccc(NC(=O)[C@@H]2C(=O)N(C)C[C@H]2c2ccc(C(F)(F)F)cc2)n1 (racemic) [Compound 1641] | 0% | 0% | 0% | 0% | 0% | 0% | 0% | 0% | 0% | 0% | 0% | 0% | 0% | 0% | 0% | 0% | 0% | 0% | 0% | 0% | pest or weed control at 250 g/ha [7]: 0%; pest or weed control at 15.625 g/ha [8]: 0%; pest or weed control at 62.5 g/ha [8]: 0%; pest or weed control at 250 g/ha [8]: 0%; plant injury at 15.625 g/ha (corn (Zea mays) [9]): 0%; plant injury at 62.5 g/ha (corn (Zea mays) [9]): 0%; plant injury at 250 g/ha (corn (Zea mays) [9]): 0%; pest or weed control at 15.625 g/ha [10]: 0%; pest or weed control at 62.5 g/ha [10]: 0%; pest or weed control at 250 g/ha [10]: 0%; pest or weed control at 15.625 g/ha [11]: 0%; pest or weed control at 62.5 g/ha [11]: 0%; pest or weed control at 250 g/ha [11]: 0%; pest or weed control at 15.625 g/ha [12]: 0%; pest or weed control at 62.5 g/ha [12]: 0%; pest or weed control at 250 g/ha [12]: 0%
2 | CCc1nccc(NC(=O)[C@@H]2C(=O)N(C)C[C@H]2c2ccc(C(F)(F)F)cc2)c1Cl (racemic) [Compound 1538] | 0% | 0% | 10% | 0% | 0% | 0% | 0% | 0% | 10% | 0% | 0% | 0% | 0% | 0% | 0% | 10% | 30% | 50% | 0% | 30% | pest or weed control at 250 g/ha [7]: 50%; pest or weed control at 15.625 g/ha [8]: 0%; pest or weed control at 62.5 g/ha [8]: 0%; pest or weed control at 250 g/ha [8]: 0%; plant injury at 15.625 g/ha (corn (Zea mays) [9]): 0%; plant injury at 62.5 g/ha (corn (Zea mays) [9]): 0%; plant injury at 250 g/ha (corn (Zea mays) [9]): 0%; pest or weed control at 15.625 g/ha [10]: 0%; pest or weed control at 62.5 g/ha [10]: 0%; pest or weed control at 250 g/ha [10]: 0%; pest or weed control at 15.625 g/ha [11]: 0%; pest or weed control at 62.5 g/ha [11]: 0%; pest or weed control at 250 g/ha [11]: 70%; pest or weed control at 15.625 g/ha [12]: 0%; pest or weed control at 62.5 g/ha [12]: 20%; pest or weed control at 250 g/ha [12]: 60%

— patent US12077503B2, “Substituted cyclic amides and their use as herbicides” (FMC CORPORATION, priority 2015, dated 2024)
